The record followed here is patent US20250108038A1 (priority 2023, published 2025).

Entries after “also recorded” stand apart in the source; their conditions may differ. Like-named read-outs stand apart in the source and are kept apart here.

The target in one data set is T1, OAT3 (Homo sapiens, UniProt Q8TCC7).
T1 sequence (Q8TCC7 1-542): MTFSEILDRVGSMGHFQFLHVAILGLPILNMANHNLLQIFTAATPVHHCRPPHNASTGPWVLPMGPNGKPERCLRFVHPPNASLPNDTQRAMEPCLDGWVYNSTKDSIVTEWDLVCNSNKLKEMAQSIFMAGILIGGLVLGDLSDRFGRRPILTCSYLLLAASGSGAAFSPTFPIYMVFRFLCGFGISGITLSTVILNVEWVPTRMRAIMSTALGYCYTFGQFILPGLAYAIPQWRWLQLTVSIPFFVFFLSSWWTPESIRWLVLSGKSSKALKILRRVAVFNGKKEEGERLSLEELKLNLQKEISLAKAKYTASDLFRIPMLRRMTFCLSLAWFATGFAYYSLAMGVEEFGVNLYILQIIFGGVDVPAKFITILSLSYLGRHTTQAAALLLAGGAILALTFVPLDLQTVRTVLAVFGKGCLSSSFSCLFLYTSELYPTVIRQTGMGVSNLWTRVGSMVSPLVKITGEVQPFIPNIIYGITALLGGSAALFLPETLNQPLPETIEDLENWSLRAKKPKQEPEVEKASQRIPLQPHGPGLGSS
Put plainly: Uptake transporter inhibition assay, OAT3 (estrone-3-sulfate). Particulars: for Maximum % inhibition: OAT3, HEK293 cells, E3S (1 μM), NIO: no inhibition observed. As for the experimental part: (§1) Uptake experiments were performed using HEK293 cells stably expressing the respective uptake transporters. The assays were conducted according to the actual SOLVO uptake transporter assay protocols (PR-ASY-UPT-General Protocol for Uptake Transporter Inhibition Assays).
(§2) Cells were cultured at 37° C. in a humidified atmosphere containing 5% CO2 and were plated onto standard 96-well tissue culture plates.
(§3) Before the experiment, the medium was removed, and the cells were washed twice with 100 μL of pre-warmed (37° C.) assay buffer listed in Table 15. The cells were pre-incubated at 37° C. for 30 minutes in assay buffer containing the test article at appropriate concentrations (Table 16), appropriate solvents for solvent controls and the reference inhibitor for reference inhibitor wells. After the pre-incubation step solutions were removed. Uptake experiments were performed at 37° C. in 50 μL of assay buffer containing the probe substrate and the test article or solvent and controls.
(§4) After the experiment, cells were washed twice with 100 μL of appropriate cold buffer and lysed with 150 μL scintillation cocktail. Radiolabeled probe substrate transport was determined by liquid scintillation counting.
(§5) Uptake of the probe substrate in control cells provided background activity values for all data points.

The next data set deals with T2, OCT2 (Homo sapiens, UniProt O15244).
T2 sequence (O15244 1-555): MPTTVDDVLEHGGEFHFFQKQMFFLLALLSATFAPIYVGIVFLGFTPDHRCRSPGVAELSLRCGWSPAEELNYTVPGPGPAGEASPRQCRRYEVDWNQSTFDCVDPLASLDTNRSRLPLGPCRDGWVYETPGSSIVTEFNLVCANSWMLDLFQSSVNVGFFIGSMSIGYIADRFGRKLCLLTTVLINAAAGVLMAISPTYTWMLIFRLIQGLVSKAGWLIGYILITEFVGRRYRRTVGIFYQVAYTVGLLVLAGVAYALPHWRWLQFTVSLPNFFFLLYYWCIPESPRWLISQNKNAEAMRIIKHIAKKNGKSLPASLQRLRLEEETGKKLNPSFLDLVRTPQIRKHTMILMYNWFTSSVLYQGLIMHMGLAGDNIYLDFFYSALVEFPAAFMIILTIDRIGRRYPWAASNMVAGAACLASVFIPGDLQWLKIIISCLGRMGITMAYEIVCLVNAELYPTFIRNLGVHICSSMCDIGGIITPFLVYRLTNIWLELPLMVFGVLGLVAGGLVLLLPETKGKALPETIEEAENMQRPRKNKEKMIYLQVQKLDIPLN
In words: Uptake transporter inhibition assay, OCT2 (metformin). As to the method:
as §1, §2, §3, §4, §5

In data set [1] the test system is human 3D intestinal model (EpiIntestinal). In words: Intestinal permeability in the EpiIntestinal model. The format is in vitro ADME. Particulars: apical dose 100 μL of 10 mM stock solution, 120 min, 37° C. As for the experimental part: FIG. 2A. Intestinal permeability of Compound I-19. […] Samples were taken from the basolateral compartment at 0, 15, 30, 60, and 120 min. and were analyzed by LCMSMS for presence of parent compound. Values represent mean+SEM of n=3 separate experiments.
FIG. 2B. Intestinal permeability of Compound I-4 was determined in the human 3D intestinal model (Epilntestinal) from MatTek Corp. Tissues were dosed apically with 100 μL of 10 mM stock solution (4.25 μg) at 0 min. and the tissues were incubated with the test articles at 37° C. for a total of 120 min. Samples were taken from the basolateral compartment at 0, 15, 30, 60, and 120 min. and were analyzed by LCMSMS for presence of parent compound. Values represent mean+SEM of n=3 separate experiments.
Human 3D EpiIntestinal tissue model (MatTek, SMI-100, Lot #33921 Kit B) was used to model the intestine and was used for permeability studies. This model offers […] advantages over other permeability testing models such as Caco-2 cells. […]
The test articles (100 wL of 100 μM solution, or 4.25 ug) was applied to the apical surface of the EpiIntestinal model. […] Metabolic stability was determined by loss of parent compound using LCMSMS.
All data was compiled and organized in Excel. Mean, standard deviation, and standard deviation of the mean were calculated using Excel. […] The permeability coefficient (Papp) was calculated using the following equation: […]

Setting [2] is: 0.04 μM nominal, metformin, IC50 determination, Table 124.
Where [3] appears, read: 0.12 μM nominal, metformin, IC50 determination, Table 124.
[4] abbreviates: 1.11 μM nominal, metformin, IC50 determination, Table 124.
The mark [5] stands for this setting: 3.00 μM nominal, metformin, Table 123.
[6] abbreviates: 10.00 μM nominal, metformin, IC50 determination, Table 124.
Where [7] appears, read: 30.00 μM nominal, metformin, IC50 determination, Table 124.
[8] abbreviates: 30.00 μM nominal, metformin, Table 123.
[9] abbreviates: 10.00 μM nominal, 6.60 μM NSB corrected.
Setting [10] is: 100.00 μM nominal, 77.00 μM NSB corrected.
[11] abbreviates: 0.14 μM nominal, 0.09 μM NSB corrected, follow-up assay.
Where [12] appears, read: 1.24 μM nominal, 0.86 μM NSB corrected, follow-up assay.
Setting [13] is: 11.11 μM nominal, 7.89 μM NSB corrected, follow-up assay.
Setting [14] is: 33.33 μM nominal, 24.33 μM NSB corrected, follow-up assay.
The mark [15] stands for this setting: 100.00 μM nominal, 100.00 μM NSB corrected, follow-up assay.
[16] abbreviates: […] nominal, 1.89 μM NSB corrected, follow-up assay.

Consider `OC1(c2ccc(Cl)cc2)c2ccccc2C2=NCCN21` (centres unmarked) [Compound A, 5-(4-chlorophenyl)-2,3-dihydroimidazo[1,2-b]isoindol-5-ol, reference compound], for which the “Relative transporter specific accumulation” value was 97.60 ± 4.33 % of control at OAT3 (3.00 μM nominal); 89.65 ± 3.21 % of control on OAT3 (30.00 μM nominal); 109.28 ± 6.45 % of control on OCT2 (setting [2]); 106.33 ± 3.85 % of control on OCT2 (setting [3]); 84.39 ± 4.06 % of control at OCT2 (setting [4]); 51.42 ± 3.71 % of control on OCT2 (setting [5]). In addition, the “Relative transporter specific accumulation” value was 25.88 ± 3.39 % of control at OCT2 (setting [6]), 9.42 ± 0.99 % of control at OCT2 (setting [7]) and 13.54 ± 1.38 % of control at OCT2 (setting [8]). The Transporter specific accumulation is 3,883.00 ± 158.50 cpm on OAT3 (3.00 μM nominal); 3,566.67 ± 111.53 cpm at OAT3 (30.00 μM nominal); 259.00 ± 13.36 cpm on OCT2 (setting [2]); 252.00 ± 5.57 cpm at OCT2 (setting [3]); 200.00 ± 7.72 cpm at OCT2 (setting [4]); 150.67 ± 6.96 cpm on OCT2 (setting [5]). Further, the Transporter specific accumulation was determined as 61.33 ± 7.84 cpm on OCT2 (setting [6]), 22.33 ± 2.26 cpm at OCT2 (setting [7]) and 39.67 ± 3.38 cpm on OCT2 (setting [8]). The Maximum % inhibition result on OAT3 was “NIO”. For the same compound, the inhibition at 3 μM against OAT3 (human, Relative inhibition, 3.00 μM nominal) stood at 2%; against OCT2 (human, Relative inhibition, 3.00 μM nominal, metformin, Table 123), 49%. Further, the inhibition at 30 μM was 10% against OAT3 (human, Relative inhibition, 30.00 μM nominal); 91% on OCT2 (human, Relative Inhibition, 30.00 μM nominal, metformin, IC50 determination, Table 124); 86% against OCT2 (human, Relative inhibition, 30.00 μM nominal, metformin, Table 123). The “maximum inhibition of OAT3-mediated E3S accumulation” value at OAT3 (up to 100 μM (Compound A up to 30 μM)) is given as “did not inhibit; also recorded: not an in vitro inhibitor”. Also, the IC50 at OCT2 was 3.49 µM. Also, the inhibition at 10 µM amounted to 91% on OCT2 (human, Maximum % inhibition, OCT2, HEK293 cells, metformin (10 μM), NIO: no inhibition observed) and 74% at OCT2 (human, Relative Inhibition, 10.00 μM nominal, metformin, IC50 determination, Table 124). The inhibition at 0.04 μM against OCT2 (human, Relative Inhibition, 0.04 μM nominal, metformin, IC50 determination, Table 124) is -9%. In addition, the inhibition at 0.12 μM against OCT2 (human, Relative Inhibition, 0.12 μM nominal, metformin, IC50 determination, Table 124) was -6%. Besides, the inhibition at 1.11 μM on OCT2 (human, Relative Inhibition, 1.11 μM nominal, metformin, IC50 determination, Table 124) was 16%.

Consider `COCCOC1(c2ccc(Cl)cc2)c2ccccc2C2=NCCN21` (centres unmarked) [Compound I-4], for which the Papp in data set [1] is 0.155 ×10⁻⁶ cm/s.

In data set [1], `Clc1ccc(C2(OCC3OCCO3)c3ccccc3C3=NCCN32)cc1` (centres unmarked) [Compound I-19] displayed a Papp of 0.106 ×10⁻⁶ cm/s. The Relative inhibition on OAT3 (setting [9]) stood at 5%; at OAT3 (setting [10]), 42%; on OCT2 (setting [11]), 1%; on OCT2 (setting [12]), 19%; on OCT2 (setting [9]), 69%; on OCT2 (setting [13]) it was 60%. The Relative inhibition on OCT2 (setting [14]) turned out to be 87%; on OCT2 (setting [10]), 98%; on OCT2 (setting [15]), 97%; at OCT2 (setting [16]), 29%. Moreover, the “Relative transporter specific accumulation” value on OAT3 (setting [9]) is given as 95.18 ± 1.71 % of control; on OAT3 (setting [10]) it was 57.83 ± 0.99 % of control; on OCT2 (setting [11]), 98.93 ± 6.26 % of control; at OCT2 (setting [12]) it was 81.44 ± 5.58 % of control; on OCT2 (setting [9]), 30.61 ± 3.54 % of control; on OCT2 (setting [13]), 39.65 ± 3.63 % of control. In addition, the “Relative transporter specific accumulation” value is listed as 12.63 ± 3.35 % of control at OCT2 (setting [14]), 1.78 ± 0.65 % of control on OCT2 (setting [10]), 3.16 ± 1.38 % of control at OCT2 (setting [15]) and 70.94 ± 7.30 % of control on OCT2 (setting [16]). Besides, the Transporter specific accumulation on OAT3 (setting [9]) was 10,323.00 ± 126.84 cpm; at OAT3 (setting [10]), 6,272.33 ± 68.97 cpm; on OCT2 (setting [11]), 339.33 ± 6.18 cpm; at OCT2 (setting [12]), 279.33 ± 8.96 cpm; at OCT2 (setting [9]) it was 126.00 ± 14.46 cpm; at OCT2 (setting [13]) it was 136.00 ± 9.32 cpm. Also, the Transporter specific accumulation on OCT2 (setting [14]) was found to be 43.33 ± 11.20 cpm; at OCT2 (setting [10]), 7.33 ± 2.67 cpm; on OCT2 (setting [15]) it was 10.83 ± 4.69 cpm; at OCT2 (setting [16]), 243.33 ± 20.22 cpm. The Maximum % inhibition at OAT3 turned out to be 42%; at OCT2 (OCT2, HEK293 cells, metformin (10 μM), NIO: no inhibition observed) it was 97%. Further, the “maximum inhibition of OCT2-mediated metformin accumulation” value at OCT2 (2-concentration assay, 100 μM (Compound A 30 μM)) came to 98%; on OCT2 (follow-up assay) it was 97%. The same compound had a half-inhibitory concentration (IC50) at OCT2 (follow-up assay, NSB-corrected concentrations for Compound I-19) of 8.95 µM.

Usually inhibition stands for the relative decrease from the control value, in per cent. By IC50 is commonly meant the point on the concentration scale where inhibition reaches its midpoint. Broadly, the Papp is the rate of passage across a membrane or cell layer, normalised by area and donor concentration.
